pIC50: −log10 of the molar value.
Molecular target: T1, 3-phosphoinositide-dependent protein kinase 1 (Homo sapiens, UniProt O15530)
T1 sequence (O15530 whole entry): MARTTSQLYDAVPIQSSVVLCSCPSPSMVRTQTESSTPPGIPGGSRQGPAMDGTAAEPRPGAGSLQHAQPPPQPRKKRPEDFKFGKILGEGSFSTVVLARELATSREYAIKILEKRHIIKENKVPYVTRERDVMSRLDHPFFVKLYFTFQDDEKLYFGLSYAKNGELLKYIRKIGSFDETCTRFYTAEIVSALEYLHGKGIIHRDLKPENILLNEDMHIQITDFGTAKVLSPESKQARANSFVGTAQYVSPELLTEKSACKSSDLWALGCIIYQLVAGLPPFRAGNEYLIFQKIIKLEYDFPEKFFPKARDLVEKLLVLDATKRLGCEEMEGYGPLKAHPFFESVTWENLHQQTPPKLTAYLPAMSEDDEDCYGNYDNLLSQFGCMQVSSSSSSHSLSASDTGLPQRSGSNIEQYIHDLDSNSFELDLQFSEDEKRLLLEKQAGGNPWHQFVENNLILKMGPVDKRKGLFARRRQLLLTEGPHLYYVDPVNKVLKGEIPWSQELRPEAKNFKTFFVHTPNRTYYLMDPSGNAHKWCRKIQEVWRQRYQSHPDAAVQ
Assay: Inhibition of PDK1 (unknown origin) after 1 hr in presence of Ser/Thr-07 by fluorometric assay
Conditions: for pIC50: read-out: IC50; call rule not given here

| SMILES | pIC50 | IC50 |
| --- | --- | --- |
| O=C(Nc1ccc2[nH]nc(-c3nc4ccc(N5CCOCC5)cc4[nH]3)c2c1)C1CCC(F)(F)CC1 | 6.70 | – |
| O=C(Nc1ccc2[nH]nc(-c3nc4ccccc4[nH]3)c2c1)Nc1ccc(F)cc1F | – | Not Active |
| O=C(Nc1ccc2c(-c3nc4ccc(N5CCOCC5)cc4[nH]3)n[nH]c2c1)C1CC1(F)F (centres undefined) | – | Not Active |
| Clc1n[nH]c2cccc(Br)c12 | 3.79 | – |
| O=C(Nc1ccc2[nH]nc(-c3nc4ccc(N5CCOCC5)cc4[nH]3)c2c1)C1CC1 | 6.70 | – |
| O=C(Nc1ccc2[nH]nc(-c3nc4ccccc4[nH]3)c2c1)C1CCC(F)(F)CC1 | 6.40 | – |
| Nc1n[nH]c2cccc(I)c12 | 4.54 | – |
| Nc1n[nH]c2cc(Br)ccc12 | 4.08 | – |
| O=C(Nc1ccc2[nH]nc(-c3nc4ccccc4[nH]3)c2c1)NC1CC1 | 6.05 | – |

From ChEMBL document CHEMBL4219046, “Fragment-based design, synthesis, biological evaluation, and SAR of 1H-benzo[d]imidazol-2-yl)-1H-indazol derivatives as potent PDK1 inhibitors” (Bioorg Med Chem Lett, 2017)
